According to US20220193111A1, “Method of Treatment” (The University Court of the University of Edinburgh, priority 2018, published 2022):

B1: miR-148b mimic: miR-148b mimic oligonucleotide; in a particular embodiment has SEQ ID NO: 1, the human precursor miR-148b sequence (nucleic acid)
chain: CAAGCACGAUUAGCAUUUGAGGUGAAGUUCUGUUAUACACUCAGGCUGUGGCUCUCUGAAAGUCAGUGCAUCACAGAACUUUGUCUCGAAAGCUUUCUA
modifications: listed as RNA, chemistry not given here

Columns and labels:
HUVECs = test: ECIS plasma membrane capacitance analysis; assay type: cell-based, human; settings: HUVECs knock-down for miR-148b
Method: Confluent HUVECs were transfected with controls or miR-148b mimic or anti-miR-148b and, plated on the ECIS chip array (8W1E or 8W10E). The migration speed was calculated in μm/h, capacitance of the plasma membrane is Cm (μF/cm^2) as reported in Giaever, I, and Keese, C R (1991)^29.

3′UTR of SMAD2 = test: Luciferase reporter assay, wild-type 3′UTR of SMAD2; assay type: cell-based, human; settings: 48 h post-co-transfection, HEK293T cells or HUVECs; mutation of the binding sites restored it
Excerpt: Luciferase assay has been performed as previously described^53. TGFB2 3′-UTR and SMAD2 3′-UTR vectors were cloned in pMIR-Reporter (Life Technology). Primers are used for the cloning are: TGFβ2 3′UTR: Forward 5′-[…]-3′ (SEQ ID NO: 7), Reverse 5′-[…]-3′ (SEQ ID NO: 8); SMAD2 3′UTR: Forward 5′-[…]-3′ (SEQ ID NO: 9), Reverse 5′-[…]-3′ (SEQ ID NO: 10). Primers for 3′UTR mutation: TGFB2: Forward […] (SEQ ID NO: 11) and Reverse […] (SEQ ID NO: 12); SMAD2 Forward […] (SEQ ID NO: 13) and Reverse […] (SEQ ID NO: 14). Luciferase constructs were transfected into HEK293T cells or HUVECs together with miR-148b mimics or p-SV-beta-Gal control vector. Cells were cultured for 48 h and assayed with the Luciferase and β-Galactosidase Reporter Assay Systems (Promega). Luciferase values were normalized to protein concentration and β-galactosidase activity.

Row | Molecule | membrane capacitance (Cm) (HUVECs) | luciferase activity, 3′-UTR-SMAD2 reporter (3′UTR of SMAD2)
1 | anti-miR-148b: miR-148b inhibitor oligonucleotide; suitable inhibitor: hsa-miR-148b-3p miRCURY LNA inhibitor, CAAAGTTCTGTGATGCACTG (SEQ ID NO: 6) (commercial miRCURY LNA inhibitor, LNA positions not given here) | increased | 
2 | B1 |  | decreased luciferase activity
